Results published in patent US10206399B2, “Herbicidal composition comprising uracil compound as active ingredient” (Dongbu Farm Hannong Co., Ltd., priority 2012, dated 2019).
Like-named read-outs stand apart in the source and are kept apart here.

Tests used:
[1] = tested on: Abutilon theophrasti; assay: whole plant or invertebrate
Excerpt: (§1) X is % damage by uracil compound (a) of formula 1 at the rate of application of p kg/ha; Y is % damage by conventional herbicidal compound (b) at the rate of application of q kg/ha; and E is the expected damage caused by compounds (a) and (b) at a rate of application of p and q kg/ha.
(§2) The expected activity for a given combination of two herbicides can be calculated using equation 1 above.

[2] = tested on: Aeschynomene indica; assay: whole plant or invertebrate
Excerpt: as §1, §2

[3] = tested on: Xanthium spinosum; assay: whole plant or invertebrate
Excerpt: as §1, §2

[4] = tested on: Echinochloa crus; conditions: for Echinochloa crus mortality, measured value: 20 days after treatment
Excerpt: as §1, §2

[5] = tested on: Digitaria sanguinalis; conditions: for Digitaria sanguinalis mortality, measured value: 20 days after treatment
Excerpt: as §1, §2

[6] = 480 h, read-out: Abutilon theophrasti mortality, measured value
[7] = 480 h, read-out: Aeschynomene indica mortality, measured value
[8] = 480 h, read-out: Xanthium spinosum mortality, measured value

Work on `COC(=O)CCNC(=O)C(C)Oc1cc(-n2c(=O)cc(C(F)(F)F)n(C)c2=O)c(F)cc1Cl` (stereo not drawn) [Compound 1, 3-[{2-[2-chloro-5-(3,6-dihydro-3-methyl-2,6-dioxo-4-trifluoromethyl-1(2H)-pyrimidinyl)-4-fluorophenoxy]-1-oxopropyl}amino]propionic acid methyl ester] yielded a mortality at 4 g/ha [1, 6] of 17%, a mortality at 8 g/ha [1, 6] of 45% and a mortality at 16 g/ha [1, 6] of 60%. The mortality at 4 g/ha [2, 7] was 18%, the mortality at 8 g/ha [2, 7] was 45% and the mortality at 16 g/ha [2, 7] was 60%. The mortality at 4 g/ha [3, 8] was 11%, the mortality at 8 g/ha [3, 8] was 39% and the mortality at 16 g/ha [3, 8] was 52%. The “Echinochloa crus mortality, measured value” (shortened to “Echinochloa crus mortality”) ([4]; 4 g/ha) was 0%, the “Echinochloa crus mortality” value ([4]; 8 g/ha) was 5% and the “Echinochloa crus mortality” value ([4]; 16 g/ha) was 17%. For the same compound, the “Digitaria sanguinalis mortality, measured value” (from here on “Digitaria sanguinalis mortality”) ([5]; 4 g/ha) was 0%, the “Digitaria sanguinalis mortality” value ([5]; 8 g/ha) was 5% and the “Digitaria sanguinalis mortality” value ([5]; 16 g/ha) was 20%.

With `COc1c(Cl)ccc(Cl)c1C(=O)O` [Dicamba] the pest or weed control at 75 g/ha ([1]; read-out: Data (measured value) Abutilon theophrasti, 75 g/ha) was 9%, the pest or weed control at 150 g/ha ([1]; read-out: Data (measured value) Abutilon theophrasti, 150 g/ha) was 20% and the pest or weed control at 300 g/ha ([1]; read-out: Data (measured value) Abutilon theophrasti, 300 g/ha) was 46%. It also gave a pest or weed control at 75 g/ha ([2]; read-out: Data (measured value) Aeschynomene indica, 75 g/ha) of 7%, a pest or weed control at 150 g/ha ([2]; read-out: Data (measured value) Aeschynomene indica, 150 g/ha) of 23% and a pest or weed control at 300 g/ha ([2]; read-out: Data (measured value) Aeschynomene indica, 300 g/ha) of 51%. The pest or weed control at 75 g/ha ([3]; read-out: Data (measured value) Xanthium spinosum, 75 g/ha) was 13%, the pest or weed control at 150 g/ha ([3]; read-out: Data (measured value) Xanthium spinosum, 150 g/ha) was 29% and the pest or weed control at 300 g/ha ([3]; read-out: Data (measured value) Xanthium spinosum, 300 g/ha) was 62%. The “Data (measured value) Echinochloa crus” value ([4]; 75 g/ha) was 0, the “Data (measured value) Echinochloa crus” value ([4]; 150 g/ha) was 0 and the “Data (measured value) Echinochloa crus” value ([4]; 300 g/ha) was 0. For the same compound, the “Data (measured value) Digitaria sanguinalis” value ([5]; 75 g/ha) was 0, the “Data (measured value) Digitaria sanguinalis” value ([5]; 150 g/ha) was 0 and the “Data (measured value) Digitaria sanguinalis” value ([5]; 300 g/ha) was 0.

With `CC(Oc1ccc(Oc2nc3ccc(Cl)cc3o2)cc1)C(=O)O` (stereo not drawn) [Fenoxaprop, reference compound] the mortality at 25 g/ha [1, 6] was 0%, the mortality at 50 g/ha [1, 6] was 0% and the mortality at 100 g/ha [1, 6] was 0%. It also gave a mortality at 25 g/ha [2, 7] of 0%, a mortality at 50 g/ha [2, 7] of 0% and a mortality at 100 g/ha [2, 7] of 0%. It also gave a mortality at 25 g/ha [3, 8] of 0%, a mortality at 50 g/ha [3, 8] of 0% and a mortality at 100 g/ha [3, 8] of 0%. For the same compound, the “Echinochloa crus mortality” value ([4]; 25 g/ha) was 13%, the “Echinochloa crus mortality” value ([4]; 50 g/ha) was 31% and the “Echinochloa crus mortality” value ([4]; 100 g/ha) was 65%. The “Digitaria sanguinalis mortality” value ([5]; 25 g/ha) was 13%, the “Digitaria sanguinalis mortality” value ([5]; 50 g/ha) was 32% and the “Digitaria sanguinalis mortality” value ([5]; 100 g/ha) was 64%.

For `CC(Oc1ccc(Oc2ccc(C(F)(F)F)cn2)cc1)C(=O)O` (stereo not drawn) [Fluazifop, reference compound], the mortality at 50 g/ha [1, 6] was 0%, the mortality at 100 g/ha [1, 6] was 0% and the mortality at 200 g/ha [1, 6] was 0%. For the same compound, the mortality at 50 g/ha [2, 7] was 0%, the mortality at 100 g/ha [2, 7] was 0% and the mortality at 200 g/ha [2, 7] was 0%. The mortality at 50 g/ha [3, 8] was 0%, the mortality at 100 g/ha [3, 8] was 0% and the mortality at 200 g/ha [3, 8] was 0%. The “Echinochloa crus mortality” value ([4]; 50 g/ha) was 10%, the “Echinochloa crus mortality” value ([4]; 100 g/ha) was 26% and the “Echinochloa crus mortality” value ([4]; 200 g/ha) was 61%. The “Digitaria sanguinalis mortality” value ([5]; 50 g/ha) was 9%, the “Digitaria sanguinalis mortality” value ([5]; 100 g/ha) was 21% and the “Digitaria sanguinalis mortality” value ([5]; 200 g/ha) was 52%.

Compound `Nc1c(Cl)c(F)nc(OCC(=O)O)c1Cl` [Fluroxypyr] has a pest or weed control at 50 g/ha ([1]; read-out: Data (measured value) Abutilon theophrasti, 50 g/ha) of 9%, a pest or weed control at 100 g/ha ([1]; read-out: Data (measured value) Abutilon theophrasti, 100 g/ha) of 26% and a pest or weed control at 200 g/ha ([1]; read-out: Data (measured value) Abutilon theophrasti, 200 g/ha) of 53%. It also gave a pest or weed control at 50 g/ha ([2]; read-out: Data (measured value) Aeschynomene indica, 50 g/ha) of 13%, a pest or weed control at 100 g/ha ([2]; read-out: Data (measured value) Aeschynomene indica, 100 g/ha) of 27% and a pest or weed control at 200 g/ha ([2]; read-out: Data (measured value) Aeschynomene indica, 200 g/ha) of 63%. It also gave a pest or weed control at 50 g/ha ([3]; read-out: Data (measured value) Xanthium spinosum, 50 g/ha) of 7%, a pest or weed control at 100 g/ha ([3]; read-out: Data (measured value) Xanthium spinosum, 100 g/ha) of 23% and a pest or weed control at 200 g/ha ([3]; read-out: Data (measured value) Xanthium spinosum, 200 g/ha) of 54%. The “Data (measured value) Echinochloa crus” value ([4]; 50 g/ha) was 0, the “Data (measured value) Echinochloa crus” value ([4]; 100 g/ha) was 0 and the “Data (measured value) Echinochloa crus” value ([4]; 200 g/ha) was 0. For the same compound, the “Data (measured value) Digitaria sanguinalis” value ([5]; 50 g/ha) was 0, the “Data (measured value) Digitaria sanguinalis” value ([5]; 100 g/ha) was 0 and the “Data (measured value) Digitaria sanguinalis” value ([5]; 200 g/ha) was 0.
